The record followed here is patent US8916702B2 (priority 2012, dated 2014).

The term EC50 denotes the concentration giving half of the maximal effect.

The subject of this test is HCV pseudoparticles (genotype 1a HCV E1 and E2 envelope, H77C isolate). The test can be described thus: microbe, parasite or virus in culture. The conditions noted are these: Hepatitis C virus. The class given is cell-based.
Where [1] appears, read: Huh-7, read-out: Activity (EC50 class), HCV pseudoparticles (genotype 1a, H77C) in Huh7 cells, EC50 expressed as class A/B.
The mark [2] stands for this setting: Huh-7, 48 h, read-out: Activity (EC50 class), HCV pseudoparticles, Huh7 cells, luciferase 2 days after infection, average of duplicates.
The mark [3] stands for this setting: Huh-7, 48 h, HCV pseudoparticle infection of Huh7 cells, luciferase 2 days after infection, average of duplicates.
[4] abbreviates: Huh-7, 48 h, read-out: Activity (EC50 class), HCV pseudoparticle infection of Huh7 cells, luciferase 2 days after infection, EC50 expressed as class A/B.
[5] abbreviates: Huh-7, 48 h, HCV pseudoparticles (genotype 1a, H77C) in Huh7 cells, average of duplicate, luciferase 2 days after infection.

Like-named read-outs stand apart in the source and are kept apart here.

Consider `CC(C)(CNC(=O)C(=O)Oc1cncs1)CNC(=O)c1ccc(Nc2nc(NC3(c4ccc(Cl)cc4)CC3)nc(OCC(F)(F)F)n2)cc1` [Compound 3179], for which the EC50 under setting [1] is 10 to 10000 pM. Consider `CCN(CC)CCOc1cccc(NC(=O)C(=O)NC[C@H](NC(=O)c2ccc(Nc3nc(NC4(c5ccc(Cl)cc5)CC4)nc(OCC(F)(F)F)n3)cc2)C(=O)OC)c1` [Compound 3733], for which the EC50 under setting [2] was 10 to 10000 pM. `CC(=O)c1ccc(NC(=O)C(=O)NCC(C)(C)CNC(=O)c2ccc(Nc3nc(NC4(c5ccc(Cl)cc5)CC4)nc(OCC(F)(F)F)n3)cc2)cc1` [Compound 1603]: the EC50 under setting [3] was 40 pM and the 50% effective concentration (EC50) under setting [4] fell in the range of 10 to 10000 pM. Regarding `CC(C)(CNC(=O)C(=O)Nc1ccc(OC(F)(F)F)cc1)CNC(=O)c1ccc(Nc2nc(NC3(c4ccc(Cl)cc4)CC3)nc(OCC(F)(F)F)n2)cc1F` [Compound 3559], the concentration for a half-maximal effect (EC50) under setting [1] fell in the range of 10 to 10000 pM. As to `CNC(=O)C(=O)NCC(C)(C)CNC(=O)c1ccc(Nc2nc(NC3(c4ccc(Cl)cc4)CC3)nc(OCC(F)(F)F)n2)cc1` [Compound 1553], under setting [4], the EC50 was in the range of 10 to 10000 pM. `COC(=O)[C@H](CNC(=O)C(=O)Nc1ccc(CNC(N)=O)cc1)NC(=O)c1ccc(Nc2nc(NC3(c4ccc(Cl)cc4)CC3)nc(OCC(F)(F)F)n2)cc1` [Compound 3197]: the concentration giving a half-maximal response (EC50) under setting [1] is 10 to 10000 pM. On the same count and under the same terms, under `CC(C)(CNC(=O)C(=O)NCc1ccc(C(=O)c2ccccc2)cc1)CNC(=O)c1ccc(Nc2nc(NC3(c4ccc(Cl)cc4)CC3)nc(OCC(F)(F)F)n2)cc1` [Compound 3404] stands 10 to 10000 pM. Regarding `Cc1ccc(NC(=O)C(=O)NCC(C)(C)CNC(=O)c2ccc(Nc3nc(NC4(c5ccc(Cl)cc5)CC4)nc(OCC(F)(F)F)n3)cc2F)cc1` [Compound 3554], the EC50 was 29 pM under setting [5] and 10 to 10000 pM under setting [1].

Consider `Cc1ccc(NC(=O)C(=O)NCC(C)CNC(=O)c2ccc(Nc3nc(NC4(c5ccc(Cl)cc5)CC4)nc(OCC(F)(F)F)n3)cc2)cc1` (stereo not shown) [Compound 3353], for which the EC50 under setting [1] was in the range of 10 to 10000 pM. On to `COC(=O)[C@H](CCNC(=O)C(=O)Nc1cc(F)ccc1F)NC(=O)c1ccc(Nc2nc(NC3(c4ccc(Cl)cc4)CC3)nc(OCC(F)(F)F)n2)cc1` [Compound 1503], for which, under setting [4], the 50% effective concentration (EC50) fell in the range of 10 to 10000 pM. Take `CN(CCCNC(=O)c1ccc(Nc2nc(NC3(c4ccc(Cl)cc4)CC3)nc(OCC(F)(F)F)n2)cc1)C(=O)C(=O)Nc1ccc(F)cc1` [Compound 3448]: the half-maximal effective concentration (EC50) is, setting by setting: under setting [5], 59 pM; under setting [1], 10 to 10000 pM. On to `O=C(NC[C@H](NC(=O)c1ccc(Nc2nc(NC3(c4ccc(Cl)cc4)CC3)nc(OCC(F)(F)F)n2)cc1)C(=O)O)C(=O)Nc1cccc(CCc2ccccn2)c1` [Compound 3769], for which, under setting [2], the EC50 fell in the range of 10 to 10000 pM.

Regarding `O=C(NCc1ccc(F)c(F)c1)C(=O)NC[C@H](NC(=O)c1ccc(Nc2nc(NC3(c4ccc(Cl)cc4)CC3)nc(OCC(F)(F)F)n2)cc1)C(=O)O` [Compound 1171], the EC50 under setting [4] fell in the range of 10 to 10000 pM. Same read-out and setting: the figure for `CC(C)OC(=O)c1cccc(-c2ccc(NC(=O)C(=O)NCC(C)(C)CNC(=O)c3ccc(Nc4nc(NC5(c6ccc(Cl)cc6)CC5)nc(OCC(F)(F)F)n4)cc3)cc2)c1` [Compound 1491] is 10 to 10000 pM. For `CC(C)(CNC(=O)C(N)=O)CNC(=O)c1ccc(Nc2nc(NC3(c4ccc(Cl)cc4)CC3)nc(OCC(F)(F)F)n2)c(O)c1` [Compound 3478], the concentration for a half-maximal effect (EC50) under setting [1] is 10 to 10000 pM.

For the compound `O=C(NC[C@H](NC(=O)c1ccc(Nc2nc(NC3(c4ccc(Cl)cc4)CC3)nc(OCC(F)(F)F)n2)cc1)C(=O)O)C(=O)Nc1ccc(Oc2ccccc2)nc1` [Compound 3771], the EC50 under setting [2] was in the range of 10 to 10000 pM.

Consider `COC(=O)[C@H](CCNC(=O)C(=O)N(C)c1ccccc1)NC(=O)c1ccc(Nc2nc(NC3(c4ccc(Cl)cc4)CC3)nc(OCC(F)(F)F)n2)cc1` [Compound 1235], for which the EC50 is, setting by setting: under setting [3], 530 pM; under setting [4], 10 to 10000 pM.

Turning to `O=C(NCCc1ccccn1)C(=O)NC[C@H](NC(=O)c1ccc(Nc2nc(NC3(c4ccc(Cl)cc4)CC3)nc(OCC(F)(F)F)n2)cc1)C(=O)O` [Compound 1394], the EC50 under setting [4] lay in the range of 10 to 10000 pM.

For `COc1ncccc1NC(=O)C(=O)NCC[C@H](NC(=O)c1ccc(Nc2nc(NC3(c4ccc(Cl)cc4)CC3)nc(OCC(F)(F)F)n2)cc1)C(=O)O` [Compound 1261], the EC50 under setting [4] was 10 to 10000 pM. Still for that read-out and setting: the figure for `CCC1CCC(NC(=O)C(=O)NCC[C@H](NC(=O)c2ccc(Nc3nc(NC4(c5ccc(Cl)cc5)CC4)nc(OCC(F)(F)F)n3)cc2)C(=O)O)CC1` (stereo partly shown) [Compound 1121] is 10 to 10000 pM. Turning to `CC(C)(C)CNC(=O)C(=O)NC[C@H](NC(=O)c1ccc(Nc2nc(NC3(c4ccc(Cl)cc4)CC3)nc(OCC(F)(F)F)n2)cc1)C(=O)O` [Compound 1450], the 50% effective concentration (EC50) under setting [4] fell in the range of 10 to 10000 pM.

For `COC(=O)[C@H](CNC(=O)C(=O)Nc1ccc(-n2cnc(Cl)c2Cl)cc1)NC(=O)c1ccc(Nc2nc(NC3(c4ccc(Cl)cc4)CC3)nc(OCC(F)(F)F)n2)cc1` [Compound 3095], the EC50 under setting [1] is 10 to 10000 pM. As to `COC(=O)[C@H](CNC(=O)C(=O)NCCc1ccccc1)NC(=O)c1ccc(Nc2nc(NC3(c4ccc(Cl)cc4)CC3)nc(OCC(F)(F)F)n2)cc1` [Compound 1284], under setting [4], the EC50 was 10 to 10000 pM. `CC(C)(CNC(=O)C(=O)NCc1ccccc1F)CNC(=O)c1ccc(Nc2nc(NC3(c4ccc(Cl)cc4)CC3)nc(OCC(F)(F)F)n2)cc1` [Compound 3005]: the EC50 under setting [1] lay in the range of 10 to 10000 pM. Take `COC(=O)[C@H](CCNC(=O)C(=O)NC1CCCCCCC1)NC(=O)c1ccc(Nc2nc(NC3(c4ccc(Cl)cc4)CC3)nc(OCC(F)(F)F)n2)cc1` [Compound 1104]: the concentration for a half-maximal effect (EC50) under setting [4] was in the range of 10 to 10000 pM.

Turning to `O=C(NC/C(=N/C(=O)c1ccc(Nc2nc(NC3(c4ccc(Cl)cc4)CC3)nc(OCC(F)(F)F)n2)cc1)C(=O)O)C(=O)Nc1ccc(OCC(F)(F)F)cc1` [Compound 3164], the concentration for a half-maximal effect (EC50) runs as follows: under setting [5], 680 pM; under setting [1], 10 to 10000 pM. As for `COC(=O)[C@H](CCNC(=O)C(=O)Nc1ccc(N2CC(C)OC(C)C2)cc1)NC(=O)c1ccc(Nc2nc(NC3(c4ccc(Cl)cc4)CC3)nc(OCC(F)(F)F)n2)cc1` (stereo partly shown) [Compound 3121], the EC50 was 3390 pM under setting [5] and 10 to 10000 pM under setting [1]. Regarding `COC(=O)[C@H](CNC(=O)C(=O)Nc1cccc(Cc2ccccc2)c1)NC(=O)c1ccc(Nc2nc(NC3(c4ccc(Cl)cc4)CC3)nc(OCC(F)(F)F)n2)cc1` [Compound 3714], the EC50 under setting [2] lay in the range of 10 to 10000 pM. Consider `O=C(NCC[C@H](NC(=O)c1ccc(Nc2nc(NC3(c4ccc(Cl)cc4)CC3)nc(OCC(F)(F)F)n2)cc1)C(=O)O)C(=O)NCc1cccc(F)c1` [Compound 1178], for which the EC50 under setting [4] lay in the range of 10 to 10000 pM. Still for that read-out and setting: under `Cc1ccc(NC(=O)C(=O)NCC(C)(C)CNC(=O)c2ccc(Nc3nc(NC4(c5ccc(Cl)cc5)CC4)nc(OCC(F)(F)F)n3)cc2)cc1Cl` [Compound 1541] stands 10 to 10000 pM. In the case of `COC(=O)[C@H](CCNC(=O)C(=O)Nc1ccc(-c2nc(OC)cc(OC)n2)cc1)NC(=O)c1ccc(Nc2nc(NC3(c4ccc(Cl)cc4)CC3)nc(OCC(F)(F)F)n2)cc1` [Compound 3302], under setting [1], the 50% effective concentration (EC50) fell in the range of 10 to 10000 pM. `CC(C)c1ccc(NC(=O)C(=O)NC[C@H](NC(=O)c2ccc(Nc3nc(NC4(c5ccc(Cl)cc5)CC4)nc(OCC(F)(F)F)n3)cc2)C(=O)O)cc1` [Compound 3295]: under setting [1], the concentration for a half-maximal effect (EC50) fell in the range of 10 to 10000 pM.

Take `CC(C)(C)c1ccc(NC(=O)C(=O)NC[C@H](NC(=O)c2ccc(Nc3nc(NC4(c5ccc(Cl)cc5)CC4)nc(OCC(F)(F)F)n3)cc2)C(=O)O)cc1` [Compound 3294]: under setting [1], the EC50 was 10 to 10000 pM.

`COC(=O)[C@H](CNC(=O)C(=O)NCc1ccc(F)c(F)c1)NC(=O)c1ccc(Nc2nc(NC3(c4ccc(Cl)cc4)CC3)nc(OCC(F)(F)F)n2)cc1` [Compound 1136]: the EC50 under setting [4] was 10 to 10000 pM.
